In patent publication US11911388B2, “Treatment for diabetes in patients with insufficient glycemic control despite therapy with an oral or non-oral antidiabetic drug” (Boehringer Ingelheim International GmbH, priority 2008, dated 2024):
Entries after “also recorded” stand apart in the source; their conditions may differ.

Legend:
db/db mice [1] = assay: HbA1c and blood glucose after 54 day treatment of db/db mice (SU secondary drug failure model); assay type: in vivo, mouse; conditions: 3 mg/kg p.o. daily, day 54, female db/db mice; for glucose values compared to control: semi-fed
Text: Sulfonylurea (SU) like glibenclamide are one of the most frequently used drugs in diabetes treatment. Long-term treatment with SU causes elevated basal insulin secretion and decreased glucose-stimulated insulin secretion. These characteristics may play an important role for the development of hypoglycemia and secondary drug failure. […] In addition, correlating with age of the animals pancreatic β-cells of aging db/db mice fails to compensate the high glucose excursion with enhanced insulin secretion. Therefore this model is appropriate to study the glibenclamide induced secondary drug failure in comparison to a DPP-4 inhibitor (e.g. BI 1356). Female db/db mice at 5 weeks of age, are obtained from Charles River, Germany. Animals are housed in groups of 5-6 animals under a 12:[…] cycle (lights on at 04:00 AM and lights off at 04:00 PM) in temperature and humidity controlled rooms. All animals have free access to regular rodent chow (Altromin standard #1324 chow, Denmark) and water ad libitum. The compound solutions are administered daily at 08.00 AM on experimental days 0-59 by per oral gavage using a gastric tube connected to a 3 ml syringe (Luer-lockTM, Becton). Groups of 12 animals are used: vehicle, 0.5% Natrosol; BI 1356 3 mg/kg; glibenclamide 3 mg/kg. Body weight food intake and water intake is recorded daily for the first two and twice weekly for the remaining period. On experimental day 54 blood glucose and HbA1c levels are determined in semi-fed state, on day 59 an OGTT (2 g/kg) is performed. Blood samples for determination of “fed” levels blood glucose and HbA1c are performed at 10.00 AM on day 54. Prior to blood sampling animals are transferred to clean cages with no food two hours before blood sampling. At day 59 an OGTT (2 g/kg) is performed following an over-night fast of the animals and insulin is detected at t=15 min. For each data point, 10 μl blood is drawn from the tip of the tail into a microcapillary tube and measured using a Biosen S line glucose analyzer. HbA1c: are measured using a standard enzyme assay kit on a fully automated analyzer (Bayer).

db/db mice [2] = assay: Insulin during OGTT (2 g/kg) on day 59 in db/db mice; assay type: in vivo, mouse; conditions: 3 mg/kg p.o. daily, day 59, OGTT 2 g/kg, t=15 min
Text: Sulfonylurea (SU) like glibenclamide are one of the most frequently used drugs in diabetes treatment. Long-term treatment with SU causes elevated basal insulin secretion and decreased glucose-stimulated insulin secretion. These characteristics may play an important role for the development of hypoglycemia and secondary drug failure. […] In addition, correlating with age of the animals pancreatic β-cells of aging db/db mice fails to compensate the high glucose excursion with enhanced insulin secretion. Therefore this model is appropriate to study the glibenclamide induced secondary drug failure in comparison to a DPP-4 inhibitor (e.g. BI 1356).
Female db/db mice at 5 weeks of age, are obtained from Charles River, Germany. […]
The compound solutions are administered daily at 08.00 AM on experimental days 0-59 by per oral gavage using a gastric tube connected to a 3 ml syringe (Luer-lock™, Becton). […] Body weight food intake and water intake is recorded daily for the first two and twice weekly for the remaining period. On experimental day 54 blood glucose and HbA1c levels are determined in semi-fed state, on day 59 an OGTT (2 g/kg) is performed.
Blood samples for determination of “fed” levels blood glucose and HbA1c are performed at 10.00 AM on day 54. […] At day 59 an OGTT (2 g/kg) is performed following an over-night fast of the animals and insulin is detected at t=15 min. […]

| Structure (SMILES) | HbA1c compared to control (db/db mice [1]) | glucose values compared to control (db/db mice [1]) | increase in insulin during OGTT (db/db mice [2]) | form and route of excretion (human, in vivo) | excretion via the kidney (therapeutic oral dose levels) |
| --- | --- | --- | --- | --- | --- |
| CC#CCn1c(N2CCC[C@@H](N)C2)nc2c1c(=O)n(Cc1nc(C)c3ccccc3n1)c(=O)n2C [BI 1356] | improves; also recorded: superior to glibenclamide | improves; also recorded: superior to glibenclamide | able to respond to the increased glucose levels with an up-regulation of insulin; also recorded: superior to glibenclamide | primarily excreted unchanged via the bile | < 7 % of the administered oral dose |
| COc1ccc(Cl)cc1C(=O)NCCc1ccc(S(=O)(=O)NC(=O)NC2CCCCC2)cc1 [glibenclamide, reference compound] | impairs | impairs | – | – | – |
